Experimental data from patent EP2878677A1, “Activators of protein phosphatase 5” (Deutsches Zentrum für Neurodegenerative Erkrankungen e.V. …, priority 2013, dated 2015).

Legend:
Format in all cases: biochemical, C. elegans
PPH-5 = biological target: T1, PPH-5 (Caenorhabditis elegans, UniProt Q9NES8); experiment: pNPP-based phosphatase assay with nematode PPH-5; conditions: for Kd: apparent KD-value in the pNPP-based assay, 20 °C; for effect on the enzymatic activity of PPH-5 in the compound screen: initial screen of 15,000 compounds, pNPP, P5SAs at 50 ng/mL
T1 construct: made in house
T1 sequence (Q9NES8 1-496): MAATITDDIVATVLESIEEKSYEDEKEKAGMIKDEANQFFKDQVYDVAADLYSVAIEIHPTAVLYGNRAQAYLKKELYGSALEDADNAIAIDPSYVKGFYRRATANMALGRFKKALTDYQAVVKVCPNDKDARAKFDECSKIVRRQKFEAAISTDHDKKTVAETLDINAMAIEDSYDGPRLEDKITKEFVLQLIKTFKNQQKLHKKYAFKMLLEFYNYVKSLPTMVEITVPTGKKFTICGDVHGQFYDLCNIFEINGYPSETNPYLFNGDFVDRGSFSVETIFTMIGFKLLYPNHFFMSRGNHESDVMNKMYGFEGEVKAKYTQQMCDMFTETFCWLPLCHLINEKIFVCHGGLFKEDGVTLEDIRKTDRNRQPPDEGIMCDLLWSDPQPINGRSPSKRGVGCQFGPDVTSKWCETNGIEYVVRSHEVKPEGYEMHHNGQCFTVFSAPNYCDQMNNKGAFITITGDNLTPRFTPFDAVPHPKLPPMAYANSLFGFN
Experimental: At some instances, the present application refers to "measuring the enzymatic activity" of an enzyme. As used herein, this means that a measured value that is proportional to or reflects the enzymatic activity of that enzyme is measured. For example, the present application may refer to "measuring the enzymatic activity of protein phosphatase 5". Typically, this means that an in vitro reaction of protein phosphatase 5 with a suitable substrate is carried out.As the substrate para-nitrophenyl phosphate (pNPP) is used. The conditions for the phosphatase reaction are 40 mM HEPES/KOH, 20 mM KCl, 5 mM MnCl2, 1 mM DTT, pH 7.5. The reaction is carried out at 20° C. The starting concentration of pNPP is 60 mM. The concentration of the compound to be tested, if present, is in the range of 50-500 nM, preferably in the range of 100-250 nM, more preferably 50, 250 or 500 nM, more preferably 250 nM. As phosphatase, bacterially expressed and purified phosphatase is used. The concentration of the phosphatase in the reaction is 30 nM. The rate at which the dephosphorylation of this substrate proceeds is monitored, typically by measuring the rate of formation of the reaction product by spectroscopic measurements (dephosphorylation of pNPP, e.g., results in generation of p-nitrophenol, a chromogenic product with strong absorbance at about 410 nm (extinction coefficient ε = 15100 cm^-1M^-1), thus allowing to monitor generation of the reaction product by monitoring the absorbance at 410 nm). If the reaction is carried out in the presence of an excess of substrate, the initial velocity at which the reaction product is generated (i.e. the slope of the initial phase of the curve in a graph plotting the absorbance at 410 nm over time) is proportional to the enzymatic activity of protein phosphatase 5under the specific reaction conditions used. Alternatively, after starting the phosphatase reaction the reaction may be allowed to proceed for a defined incubation period (usually 30 minutes), then the reaction is stopped (for example by addition of a small volume of 1 M NaOH), and the absorbance at 410 nm is measured. Upon subtraction of the absorbance of a negative control (a reaction carried out with a non-functional, for example pre-boiled, phosphatase), the obtained value is proportional to the enzymatic activity of protein phosphatase 5 under the specific reaction conditions used (since the reaction is carried out in the presence of an excess of substrate and the incubation period is chosen such that the reaction is stopped while it is still in the quasi-linear Phase). Phosphatase activity was followed by the conversion of para-nitrophenyl phosphate (pNPP) to para-nitophenole and absorption of the product at 410 nm (ε: 15100 cm^-1 M^-1) in a Varian Cary 100 spectrophotometer (Agilent Technologies, Boeblingen, Germany). The reaction was measured in 40 mM HEPES/KOH, 20 mM KCl, 5 mM MnCl2, 1 mM DTT, pH 7.5 and 60 mM pNPP at 20 °C if not indicated otherwise. Phosphatase concentration ranged from 50 to 500 nM in the assay. If indicated, Hsp90/DAF-21 peptide was supplemented in the assay at a concentration of 60 μM. The protein phosphatase 5 is a highly regulated enzyme. The autoinhibition of the phosphatase is controlled by the N-terminal TPR domain and the C-terminal αJ helix, implying a complex mechanism to control the turnover rate (Yang et al., 2005). A compound screen was carried out to identify small molecules which can alter the activity of the phosphatase. The C. elegans homolog of protein phosphatase 5 was used (activity of nematode protein phosphatase 5 (PPH-5) at 20 °C: ∼0.62 sec^-1; mammalian PP5: ∼0.12 sec^-1). The homology between nematode PPH-5 and human PP5 is pronounced with a sequence conservation of almost 80% (Figure 6). Using the substrate para-nitrophenyl phosphate (pNPP), a library of 15,000 compounds was analyzed. […]

Hsc70/HSP-1 = biological target: T2, Hsc70/HSP-1 (Caenorhabditis elegans, UniProt P09446); experiment: coupled regenerative ATPase assay; conditions: concentrations well above the KD; also with BAG-1 and DNJ-13; 30 °C
T2 construct: made in house; host or cells: bacteria
T2 sequence (P09446 whole entry): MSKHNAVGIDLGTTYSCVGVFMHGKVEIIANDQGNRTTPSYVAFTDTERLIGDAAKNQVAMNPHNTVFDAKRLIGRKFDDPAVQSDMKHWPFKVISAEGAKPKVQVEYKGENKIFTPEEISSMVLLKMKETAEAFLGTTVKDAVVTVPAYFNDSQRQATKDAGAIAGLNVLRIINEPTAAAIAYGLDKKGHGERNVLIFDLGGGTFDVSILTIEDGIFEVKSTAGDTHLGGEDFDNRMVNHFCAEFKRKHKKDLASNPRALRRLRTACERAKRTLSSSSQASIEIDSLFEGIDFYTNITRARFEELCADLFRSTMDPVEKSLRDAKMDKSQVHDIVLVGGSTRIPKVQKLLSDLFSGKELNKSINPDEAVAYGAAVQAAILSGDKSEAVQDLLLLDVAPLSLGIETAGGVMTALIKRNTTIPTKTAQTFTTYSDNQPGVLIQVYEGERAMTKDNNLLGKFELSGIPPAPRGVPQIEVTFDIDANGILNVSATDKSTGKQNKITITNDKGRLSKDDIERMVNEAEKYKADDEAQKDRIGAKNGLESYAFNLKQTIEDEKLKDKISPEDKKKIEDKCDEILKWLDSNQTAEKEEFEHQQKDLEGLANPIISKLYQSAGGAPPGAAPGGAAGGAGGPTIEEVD
Experimental: (§1) ATPase activity can be measured as described in Gaiser et al., 2009 with an ATPase assay that is carried out as a regenerative assay, wherein ADP produced during the ATPase reaction is recycled to ATP with the help of lactate dehydrogenase, NADH, phosphoenolpyruvate and pyruvate kinase. This changes the absorbance at 340 nm, when NADH is oxidized to NAD^+, giving a sensitive signal for the determination of activity. The change in absorbance at 340 nm that occurs during oxidizing of NADH to NAD^+ is measured by spectroscopic measures. Preferably, said in vitro ATPase assay is carried out at 30 °C. Preferably, said in vitro ATPase assay is carried out in the presence of 3 µM or the chaperone protein. Preferably the concentration of each of the cochaperones present is 5 µM. Preferably, the chaperones and cochaperones used are bacterially expressed proteins.
(§2) The activity of the ATPases Hsc70/HSP-1 and Hsp90/DAF-21 were assessed in a coupled regenerative ATPase assay as described before (Gaiser et al., 2009). Reactions were measured in a Varian Cary 100 spectrophotometer (Agilent Technologies, Boeblingen, Germany) at 30 °C and the depletion of NADH was followed at 340 nm. Chaperone concentration was 3 µM and cochaperones were added, when indicated, at a concentration of 5 µM.

Hsp90/DAF-21 = biological target: T3, Hsp90/DAF-21 (Caenorhabditis elegans, UniProt Q18688); experiment: coupled regenerative ATPase assay; conditions: concentrations well above the KD; also with AHA-1; 30 °C
T3 construct: made in house
Experimental: as §1, §2

With `FC(F)(F)c1c2c(nc3c(-c4ccc(Cl)cc4)cnn13)CCC2` [P5SA-1] the fold activation (PPH-5; (sat.)) was 3.7 fold, the Kd (PPH-5) was 13.3 ± 4.2 µM and the “effect on the enzymatic activity of PPH-5 in the compound screen” value (“effect on the enzymatic activity” below) (PPH-5) was “activating effect”. For the same compound, the “ATPase activity of Hsc70/HSP-1” value (Hsc70/HSP-1) was “no additional effect” and the “ATPase activity of Hsp90/DAF-21” value (Hsp90/DAF-21) was “no effect”.

In the case of `COc1ccc(-c2nc(Cc3ccc(Cl)cc3)no2)cc1OC` [P5SA-2], the fold activation (PPH-5; (sat.)) is reported as 9.6 fold, the Kd (PPH-5) is reported as 7.8 ± 1.4 µM and the “effect on the enzymatic activity” value (PPH-5) is reported as “activating effect”. The “ATPase activity of Hsc70/HSP-1” value (Hsc70/HSP-1) was “no additional effect” and the “ATPase activity of Hsp90/DAF-21” value (Hsp90/DAF-21) was “no effect”.

For `CN1CCc2c(sc(-n3cccc3)c2CNC(=O)NC23CC4CC(CC(C4)C2)C3)C1` [P5SA-3], the fold activation (PPH-5; at 714 µM) was 4.0 fold and the “effect on the enzymatic activity” value (PPH-5) was “activating effect”.

`O=c1cc2nc(-c3ccc(F)cc3)nc(SCc3ccc(Br)cc3)n2[nH]1` [P5SA-4] was tested, and the fold activation (PPH-5; (sat.)) was 7.8 fold, the Kd (PPH-5) was 25.7 ± 5.5 µM and the “effect on the enzymatic activity” value (PPH-5) was “activating effect”. For the same compound, the “ATPase activity of Hsc70/HSP-1” value (Hsc70/HSP-1) was “no additional effect” and the “ATPase activity of Hsp90/DAF-21” value (Hsp90/DAF-21) was “no effect”.

With `CNC(=O)c1c(NC(=O)COCC(=O)Nc2sc3c(c2C(=O)NC)CCC3)sc2c1CCC2` [P5SA-5] the “influence of MEEVD peptide on affinity to PPH-5” value (PPH-5; 60 µM MEEVD peptide, titration by phosphatase assay) was “minor influence”, the fold activation (PPH-5; (sat.)) was 8.4 fold and the Kd (PPH-5) was 6.4 ± 1.8 µM. The “effect on the enzymatic activity” value (PPH-5) was “activating effect”, the “ATPase activity of Hsc70/HSP-1” value (Hsc70/HSP-1) was “no additional effect” and the “ATPase activity of Hsp90/DAF-21” value (Hsp90/DAF-21) was “no effect”.
